Test results reported in patent US9296774B2, “Halogenated dideoxy sugar derivates, preparation method and application thereof” (Suzhou Harmony Biotechnology Co., Ltd., priority 2009, dated 2016).
“Also recorded” adds a separate entry of the source.

Key:
in vivo [1] = conditions: mouse, ip
in vivo [2] = conditions: mouse, po
[3] = test system: MGC human stomach cancer cells; assay: Mouse transplant tumor, MGC human stomach cancer; conditions: for inhibitive effect on mouse transplant tumor (in words): 125 mg/kg; for Inhibition of tumor growth / Weight of tumor / weight end / weight start: 125 mg/kg once a day for 7 days; for weight end: animal weight at end; for weight start: animal weight at start;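 on all read-outs here: control group received saline vehicle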
Method: Saline solution was used as a control. The positive group CTX was treated with the compounds at an amount of 0.4 ml/20 g. The compounds were applied once a day for consecutive 7 days. The animals were then compensated.

[4] = test system: AsPc human pancreatic cancer cells; assay: Mouse transplant tumor, AsPc human pancreatic cancer; conditions: for inhibitive effect on mouse transplant tumor (in words): 125 mg/kg; for Inhibition of tumor growth / Weight of tumor / weight end / weight start: 125 mg/kg once a day for 7 days; for weight end: animal weight at end; for weight start: animal weight at start;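 on all read-outs here: Saline-treated mice served as the control group, with a CTX-treated group as positive reference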
Method: (§1) Saline solution was used as a control. The positive group CTX was treated with the compounds at an amount of 0.4 ml/20 g. The compounds were applied once a day for consecutive 7 days.

B16 malignant melanoma = assay: Mouse transplant tumor, B16 malignant melanoma; conditions: for Inhibition of tumor growth (%) / Weight of tumor / weight end / weight start: B16, 125 mg/kg once a day for 7 days; for weight end: body weight at end; for weight start: body weight at start; for inhibitive effect on mouse transplant tumor (in words): B16 malignant melanoma, 125 mg/kg
Method: as §1

[5] = test system: anaplastic thyroid carcinoma TA-K cells; assay: Mouse transplant tumor, human anaplastic thyroid carcinoma TA-K; conditions: for inhibitive effect on mouse transplant tumor (in words): anaplastic thyroid carcinoma TA-K, 125 mg/kg; for Inhibition of tumor growth / Weight of tumor / weight end / weight start: human anaplastic thyroid carcinoma TA-K, 125 mg/kg once a day for 7 days; for weight end: animal weight at end; for weight start: animal weight at start;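 on all read-outs here: Tumor-bearing mice compared against a saline-treated control group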
Method: as §1

[6] = test system: MX-1 human breast cancer cells; assay: Mouse transplant tumor, MX-1 human breast cancer; conditions: for inhibitive effect on mouse transplant tumor (in words): 125 mg/kg; for Inhibition of tumor growth / Weight of tumor / weight end / weight start: 125 mg/kg once a day for 7 days; for weight end: animal weight at end; for weight start: animal weight at start;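 on all read-outs here: mice given saline served as the control group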
Method: as §1

05-732 human bone tumor = assay: Mouse transplant tumor, 05-732 human osteosarcoma; conditions: for inhibitive effect on mouse transplant tumor (in words): 05-732 human bone tumor, 125 mg/kg; for Inhibtion of tumor growth / Weight of tumor / weight end / weight start: 05-732 human osteosarcoma, 125 mg/kg once a day for 7 days; for weight end: animal weight at end; for weight start: animal weight at start
Method: as §1

mouse [7] = assay: Acute toxicity (LD50), mouse ig
mouse [8] = assay: Acute toxicity (LD50), mouse ip injection; conditions: mouse ip after injection

| Structure (SMILES) | LD50 (in vivo [1]) [mg/kg] | LD50 (in vivo [2]) [mg/kg] | inhibitive effect on mouse transplant tumor (in words) [3] | Inhibition of tumor growth [3] | Weight of tumor [3] | inhibitive effect on mouse transplant tumor (in words) [4] | Inhibition of tumor growth [4] | Weight of tumor [4] | Inhibition of tumor growth (%) (B16 malignant melanoma) | Weight of tumor (B16 malignant melanoma) | inhibitive effect on mouse transplant tumor (in words) (B16 malignant melanoma) | inhibitive effect on mouse transplant tumor (in words) [5] | Inhibition of tumor growth [5] | Weight of tumor [5] | inhibitive effect on mouse transplant tumor (in words) [6] | Inhibition of tumor growth [6] | Weight of tumor [6] | inhibitive effect on mouse transplant tumor (in words) (05-732 human bone tumor) | Inhibtion of tumor growth (05-732 human bone tumor) | Weight of tumor (05-732 human bone tumor) | also measured |
| --- | --- | --- | --- | --- | --- | --- | --- | --- | --- | --- | --- | --- | --- | --- | --- | --- | --- | --- | --- | --- | --- |
| CC(=O)OCC1OC(OP(=O)(O)N(CCCl)CCCl)CC(Br)C1OC(C)=O (stereo not shown) [Compound 9] | 307 | 2140 |  |  |  |  |  |  |  |  |  |  |  |  |  |  |  |  |  |  |  |
| CC(=O)OCC1OC(OP(=O)(NCCCl)NCCCl)C(Br)CC1OC(C)=O (single isomer, unassigned) [Compound 7] | 316 | 2220 | good inhibitive effect; also recorded: significant effect | 83.8 | 0.4 | good inhibitive effect; also recorded: significant effect | 73.6 | 0.6 | 80.4 | 0.5 | good inhibitive effect; also recorded: significant effect | good inhibitive effect; also recorded: significant effect | 84.2 | 0.4 | good inhibitive effect; also recorded: significant effect | 80.8 | 0.5 | good inhibitive effect; also recorded: significant effect | 81.3 | 0.5 | weight end [3]: 18.4; weight start [3]: 18.3; weight end [4]: 18.4; weight start [4]: 18.3; weight end (B16 malignant melanoma): 18.4; weight start (B16 malignant melanoma): 18.3; weight end [5]: 18.4; weight start [5]: 18.3; weight end [6]: 18.4; weight start [6]: 18.3; weight end (05-732 human bone tumor): 18.4; weight start (05-732 human bone tumor): 18.3 |
| COc1cc(C2c3cc4c(cc3C(C3CC(Br)C(OC(C)=O)C(COC(C)=O)O3)C3COC(=O)C23)OCO4)cc(OC)c1O (stereo not shown) [Compound 13] | 299 | 1830 | good inhibitive effect |  |  | good inhibitive effect |  |  |  |  | good inhibitive effect | good inhibitive effect |  |  | good inhibitive effect |  |  | good inhibitive effect |  |  |  |
| CC(=O)OCC1OC(OP(=O)(NCCCl)NCCCl)C(Br)CC1OC(C)=O (single isomer, unassigned) [Compound 8] |  |  |  |  |  |  |  |  |  |  |  |  |  |  |  |  |  |  |  |  | LD50 (mouse [7]): 2017.5 mg/kg; LD50 (mouse [8]): 301.4 mg/kg |
| COc1cc(C2c3cc4c(cc3C(C3OC(COC(C)=O)C(OC(C)=O)CC3Br)C3COC(=O)C23)OCO4)cc(OC)c1O (stereo not shown) [Compound 14] | 300 | 1970 | good inhibitive effect; also recorded: significant effect | 71.9 | 0.7 | good inhibitive effect; also recorded: significant effect | 75.2 | 0.3 | 76.2 | 0.6 | good inhibitive effect; also recorded: significant effect | good inhibitive effect; also recorded: significant effect | 76.2 | 0.6 | good inhibitive effect; also recorded: significant effect | 76.3 | 0.6 | good inhibitive effect; also recorded: significant effect | 72.3 | 0.8 |  |
| CC(=O)OCC1OC(Br)C(Br)CC1OC(C)=O (single isomer, unassigned) [Compound 4] |  |  |  |  |  |  |  |  |  |  |  |  |  |  |  |  |  |  |  |  | LD50 (mouse [7]): 2389.2 mg/kg; LD50 (mouse [8]): 356.2 mg/kg |
| CC(=O)OCC1OC(OP(=O)(O)N(CCCl)CCCl)C(Br)CC1OC(C)=O (stereo not shown) [Compound 11] | 323 | 2030 |  |  |  |  |  |  |  |  |  |  |  |  |  |  |  |  |  |  |  |
| CC(=O)OCC1OC(Br)C(Br)CC1OC(C)=O (single isomer, unassigned) [Compound 3] | 359 | 2320 | good inhibitive effect; also recorded: significant effect | 72.5 | 0.7 | good inhibitive effect; also recorded: significant effect | 77.3 | 0.5 | 76.8 | 0.6 | good inhibitive effect; also recorded: significant effect | good inhibitive effect; also recorded: significant effect | 73.2 | 0.7 | good inhibitive effect; also recorded: significant effect | 75.8 | 0.6 | good inhibitive effect; also recorded: significant effect | 71.5 | 0.8 | weight end [3]: 18.3; weight start [3]: 18.2; weight end [4]: 18.3; weight start [4]: 18.2; weight end (B16 malignant melanoma): 18.3; weight start (B16 malignant melanoma): 18.2; weight end [5]: 18.3; weight start [5]: 18.2; weight end [6]: 18.3; weight start [6]: 18.2; weight end (05-732 human bone tumor): 18.3; weight start (05-732 human bone tumor): 18.2 |
| CC(=O)OCC1OC(OP(=O)(NCCCl)NCCCl)CC(Br)C1OC(C)=O (single isomer, unassigned) [Compound 5] | 301 | 2120 | good inhibitive effect; also recorded: significant effect | 75.7 | 0.6 | good inhibitive effect; also recorded: significant effect | 81.5 | 0.4 | 76.4 | 0.6 | good inhibitive effect; also recorded: significant effect | good inhibitive effect; also recorded: significant effect | 76.6 | 0.6 | good inhibitive effect; also recorded: significant effect | 83.6 | 0.4 | good inhibitive effect; also recorded: significant effect | 74.9 | 0.7 | weight end [3]: 18.6; weight start [3]: 18.3; weight end [4]: 18.6; weight start [4]: 18.3; weight end (B16 malignant melanoma): 18.6; weight start (B16 malignant melanoma): 18.3; weight end [5]: 18.6; weight start [5]: 18.3; weight end [6]: 18.6; weight start [6]: 18.3; weight end (05-732 human bone tumor): 18.6; weight start (05-732 human bone tumor): 18.3 |
| CC(=O)OCC1OC(OP(=O)(O)N(CCCl)CCCl)CC(Br)C1OC(C)=O (stereo not shown) [Compound 10] |  |  | good inhibitive effect; also recorded: significant effect | 73.2 | 0.6 | good inhibitive effect; also recorded: significant effect | 76.9 | 0.5 | 73.1 | 0.7 | good inhibitive effect; also recorded: significant effect | good inhibitive effect; also recorded: significant effect | 71.2 | 0.8 | good inhibitive effect; also recorded: significant effect | 73.2 | 0.7 | good inhibitive effect; also recorded: significant effect | 78.4 | 0.6 | LD50 (mouse [7]): 2223.7 mg/kg; weight end [3]: 18.3; weight start [3]: 18.3; LD50 (mouse [8]): 315.6 mg/kg; weight end [4]: 18.3; weight start [4]: 18.3; weight end (B16 malignant melanoma): 18.3; weight start (B16 malignant melanoma): 18.3; weight end [5]: 18.3; weight start [5]: 18.3; weight end [6]: 18.3; weight start [6]: 18.3; weight end (05-732 human bone tumor): 18.3; weight start (05-732 human bone tumor): 18.3 |
| CC(=O)OCC1OC(OP(=O)(NCCCl)NCCCl)CC(Br)C1OC(C)=O (single isomer, unassigned) [Compound 6] |  |  |  |  |  |  |  |  |  |  |  |  |  |  |  |  |  |  |  |  | LD50 (mouse [7]): 2205.8 mg/kg; LD50 (mouse [8]): 307.1 mg/kg |
